Laboratory results: patent US12161762B2, “Nanohelix-substrate complex for controlling macrophage behavior, preparation method thereof, and method of controlling adhesion and polarization of macrophage by using the same” (Korea University Research and Business Foundation, priority 2020, dated 2024)

Tested on: Macrophages (RAW 264.7)
Assay: Macrophage polarization on the substrate with inhibitors of ROCK, myosin II or actin polymerization
Format: cell-based
Details: 50 μM Y27632, 10 blebbistatin, 2 μg/mL cytochalasin D; for M1 polarization suppression of macrophages (CD68): M1 medium, 36 hours, bimodal switching "ON" state; for stimulation of robust adhesion (cell area, elongation factor) and expression of M2 polarization (Arg-1 expression): M2 medium, inhibitor treated
Description: M1 medium used for assessment of the phenotypic polarization of macrophages was prepared by using a basal medium with 10 ng/mL each of lipopolysaccharide (LPS) and recombinant interferon-gamma (IFN-γ). M2 medium was prepared by using a basal medium with 20 ng/mL each of interleukin-4 (IL4) and interleukin-13 (IL-13). The adhesion-assisted M2 phenotypic polarization of the macrophages was assessed with inhibitors of ROCK (50 μM Y27632), myosin II (10 blebbistatin), or actin polymerization (2 μg/mL of cytochalasin D).
An upper part of FIG. 19 is a confocal immunofluorescent image of CD68, F-actin, and nuclei in macrophages cultured in an M1 polarization medium with and without an inhibitor for ROCK (Y27632), myosin II (blebbistatin), or actin polymerization (cytochalasin D) for 36 hours against and a graph illustrating a cell area, a cell elongation factor, and CD68 fluorescence intensity calculated based on a confocal immunofluorescent experiment result, and a lower part of FIG. 19 is a confocal immunofluorescent image of Arg-1, and F-actin, and nuclei in macrophages cultured in an M2 polarization medium with and without an inhibitor for ROCK (Y27632), myosin II (blebbistatin), or actin polymerization (cytochalasin D) and a graph illustrating a cell area, a cell elongation factor, and Arg-1 fluorescence intensity calculated based on the confocal immunofluorescent experiment result, and a scale bar represents 20 μm.

Compound | M1 polarization suppression of macrophages (CD68) | stimulation of robust adhesion (cell area, elongation factor) and expression of M2 polarization (Arg-1 expression)
C=C1[C@@H](C)[C@H]2[C@H](Cc3ccccc3)NC(=O)[C@]23[C@H](OC(C)=O)/C=C/[C@@](C)(O)C(=O)[C@@H](C)C/C=C/[C@H]3[C@@H]1O [cytochalasin D] | continuously hindered | hindered
Cc1ccc2c(c1)C(=O)C1(O)CCN(c3ccccc3)C1=N2 (stereo not drawn) [blebbistatin] | continuously hindered | hindered
C[C@@H](N)[C@H]1CC[C@H](C(=O)Nc2ccncc2)CC1 [Example Y27632, Y27632] | continuously hindered | hindered
